The target in this experiment is T1, MetQ (SSU1577) (Streptococcus suis, UniProt A0A0H3N1C6).
T1 construct: gene SSUBM407_1651; mature protein aa 31-283 without signal peptide (1-29) and lipobox Cys30; codon-optimised, pET16b, E. coli BL21(DE3); full-length precursor 283 aa
The experiment is described as follows: isothermal titration calorimetry, one-site model. It is filed as binding. The settings on record: PBS pH 7.3, 25 °C; 38.8 µM protein in cell, 200 µM ligand in syringe.

T1 sequence (A0A0H3N1C6 entry or part of it): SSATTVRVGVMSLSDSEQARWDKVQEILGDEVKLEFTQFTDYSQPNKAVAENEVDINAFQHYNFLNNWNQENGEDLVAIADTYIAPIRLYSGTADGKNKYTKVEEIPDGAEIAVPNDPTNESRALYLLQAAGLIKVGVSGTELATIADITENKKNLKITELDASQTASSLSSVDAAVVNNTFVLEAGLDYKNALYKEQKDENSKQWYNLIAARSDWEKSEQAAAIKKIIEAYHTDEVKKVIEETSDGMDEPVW

By Kd is commonly meant the concentration at which binding is half-saturated. Read a high Kd as weaker binding. As to `CSCC[C@H](N)C(=O)O` [L-methionine], binding was characterised by a dissociation constant (Kd) of 7.1 µM.

Source of the values: publication PMC12063423, “Identification of the methionine transporter MetQ in Streptococcus suis and its contribution to virulence and biofilm formation” (Veterinary Research, 2025).
